Experimental data reported in patent US20230265116A1, “DEGRADATION OF (EGFR) BY CONJUGATION OF EGFR INHIBITORS WITH E3 LIGASE LIGAND AND METHODS OF USE” (BEIGENE, LTD., priority 2020, published 2023).

Assays:
[1] = tested on: EGFR Del19/T790M/C797S (H1975-clone #28); assay: EGFR degradation HTRF assay, H1975-clone #28 DTC cells; assay type: cell-based; conditions: H1975 # 28 DTC cells; for DC50: EGFR degradation, IC50 (DC50) from curve fit, read-out: DC50(nM) H1975 # 28 DTC; for Dmax (%) H1975 # 28 DTC: maximum percentage of inhibition (degradation)
Outline: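 Lentiviral Del19/T790M/C797S (clone #28) or Del19/C797S (clone #23) EGFR expressed in H1975 with endogenous EGFR knocked out. Cells treated 16 h, 37 °C, 8 doses, 5-fold from 10 uM top, 0.2% DMSO; EGFR read by HTRF after lysis. Degradation % vs DMSO control; DC50, Dmax from four-parameter fit.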

[2] = target: T1, EGFR L858R/T790M/C797S (BaF3-LTC cells) (Homo sapiens, UniProt P00533, C797S/L858R/T790M); assay: EGFR degradation HTRF assay, BaF3-LTC cells; assay type: cell-based; conditions: BaF3-LTC cells; for DC50: EGFR degradation, IC50 (DC50) from curve fit, read-out: DC50(nM) BaF3-LTC; for Dmax: maximum percentage of inhibition (degradation), read-out: Dmax (%) BaF3-LTC
T1 construct: expressed in transfected cells; host or cells: BaF3
T1 sequence (P00533 25-1210 T790M/C797S/L858R): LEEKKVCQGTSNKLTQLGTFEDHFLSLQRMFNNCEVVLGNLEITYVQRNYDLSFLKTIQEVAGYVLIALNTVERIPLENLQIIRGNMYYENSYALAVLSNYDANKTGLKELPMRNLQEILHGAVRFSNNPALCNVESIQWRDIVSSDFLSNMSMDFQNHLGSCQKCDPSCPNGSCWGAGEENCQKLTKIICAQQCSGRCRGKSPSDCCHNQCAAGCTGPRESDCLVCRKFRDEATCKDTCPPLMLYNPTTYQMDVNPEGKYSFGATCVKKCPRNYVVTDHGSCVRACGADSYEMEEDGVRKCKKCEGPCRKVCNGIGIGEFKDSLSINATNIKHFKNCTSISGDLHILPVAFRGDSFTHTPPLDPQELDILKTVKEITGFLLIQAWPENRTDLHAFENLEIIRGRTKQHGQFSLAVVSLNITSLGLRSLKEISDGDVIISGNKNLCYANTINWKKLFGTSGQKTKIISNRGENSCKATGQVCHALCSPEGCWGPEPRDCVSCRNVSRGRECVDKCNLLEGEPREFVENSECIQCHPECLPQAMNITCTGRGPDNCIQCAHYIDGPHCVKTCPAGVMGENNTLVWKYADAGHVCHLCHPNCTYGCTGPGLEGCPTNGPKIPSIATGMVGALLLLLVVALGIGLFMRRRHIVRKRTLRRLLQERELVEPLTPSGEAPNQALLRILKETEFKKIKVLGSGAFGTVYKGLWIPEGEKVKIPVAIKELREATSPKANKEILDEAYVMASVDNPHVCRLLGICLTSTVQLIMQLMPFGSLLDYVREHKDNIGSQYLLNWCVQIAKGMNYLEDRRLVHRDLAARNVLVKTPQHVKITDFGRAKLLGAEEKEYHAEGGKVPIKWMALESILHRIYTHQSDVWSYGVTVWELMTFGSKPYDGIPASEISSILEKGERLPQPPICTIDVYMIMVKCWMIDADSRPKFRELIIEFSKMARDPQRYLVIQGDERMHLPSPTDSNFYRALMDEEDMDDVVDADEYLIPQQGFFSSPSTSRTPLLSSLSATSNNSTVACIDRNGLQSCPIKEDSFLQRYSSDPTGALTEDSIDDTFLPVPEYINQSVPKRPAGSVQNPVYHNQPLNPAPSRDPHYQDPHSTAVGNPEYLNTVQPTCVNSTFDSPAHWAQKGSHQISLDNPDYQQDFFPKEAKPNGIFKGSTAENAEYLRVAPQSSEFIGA
Outline: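 Cells treated 16 h at 37 °C, 5% CO2 in medium with 0.2% DMSO; top final concentration 10 uM, 5-fold dilution, 8 doses. Lysates read by HTRF (665/620 nm); degradation % versus DMSO high control, DC50 from four-parameter fit, Dmax as maximal degradation.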

Row | SMILES | DC50 [1] [nM] | Dmax (%) H1975 # 28 DTC [1] [%] | DC50 [2] [nM] | Dmax [2] [%]
1 | CCOc1cc(N2CCC(N3CCN(CCc4cc5oc(=O)n(C6CCC(=O)NC6=O)c5cc4F)CC3)CC2)c(CC)cc1Nc1ncc(Br)c(Nc2ccc3c(=O)n(CC)ncc3c2P(C)(C)=O)n1 (stereo not shown) [Example 628, 3-(6-(2-(4-(1-(4-((5-bromo-4-((5-(dimethylphosphoryl)-2-ethyl-1-oxo-1,2-dihydrophthalazin-6-yl)amino)pyrimidin-2-yl)amino)-5-ethoxy-2-ethylphenyl)piperidin-4-yl)piperazin-1-yl)ethyl)-5-fluoro-2-oxobenzo[d]oxazol-3(2H)-yl)piperidine-2,6-dione] | 0.715 | 76.12 | 3.24 | 92.3
2 | CCOc1cc(N2CCC(N3CCN(CCc4c(F)cc5c(oc(=O)n5C5CCC(=O)NC5=O)c4F)CC3)CC2)c(CC)cc1Nc1ncc(Br)c(Nc2ccc3c(=O)n(CC)ncc3c2P(C)(C)=O)n1 (stereo not shown) [Example 629, 3-(6-(2-(4-(1-(4-((5-bromo-4-((5-(dimethylphosphoryl)-2-ethyl-1-oxo-1,2-dihydrophthalazin-6-yl)amino)pyrimidin-2-yl)amino)-5-ethoxy-2-ethylphenyl)piperidin-4-yl)piperazin-1-yl)ethyl)-5,7-difluoro-2-oxobenzo[d]oxazol-3(2H)-yl)piperidine-2,6-dione] | 0.965 | 71.58 | 7.66 | 89.5
3 | CCOc1cc(N2CCC(N3CCN(CCCc4cccc5c4oc(=O)n5C4CCC(=O)NC4=O)CC3)CC2)c(CC)cc1Nc1ncc(Br)c(Nc2ccc3nc(CC)ccc3c2P(C)(C)=O)n1 (stereo not shown) [Example 630, 3-(7-(3-(4-(1-(4-((5-bromo-4-((5-(dimethylphosphoryl)-2-ethylquinolin-6-yl)amino)pyrimidin-2-yl)amino)-5-ethoxy-2-ethylphenyl)piperidin-4-yl)piperazin-1-yl)propyl)-2-oxobenzo[d]oxazol-3(2H)-yl)piperidine-2,6-dione] | 1.14 | 72.34 | 8.65 | 91
4 | CCc1ccc2c(P(C)(C)=O)c(Nc3nc(Nc4cc(C5CC5)c(N5CCC(N6CCN(CCc7cccc8c7oc(=O)n8C7CCC(=O)NC7=O)CC6)CC5)cc4OC)ncc3Br)ccc2n1 (stereo not shown) [Example 631, 3-(7-(2-(4-(1-(4-((5-bromo-4-((5-(dimethylphosphoryl)-2-ethylquinolin-6-yl)amino)pyrimidin-2-yl)amino)-2-cyclopropyl-5-methoxyphenyl)piperidin-4-yl)piperazin-1-yl)ethyl)-2-oxobenzo[d]oxazol-3(2H)-yl)piperidine-2,6-dione] | 1.04 | 82.5 | 9.33 | 86.8
5 | CCOc1cc(N2CCC(N3CCN(CCCCc4cc(F)cc5c4oc(=O)n5C4CCC(=O)NC4=O)CC3)CC2)c(CC)cc1Nc1ncc(Br)c(Nc2ccc3nc(CC)ccc3c2P(C)(C)=O)n1 (stereo not shown) [Example 632, 3-(7-(4-(4-(1-(4-((5-bromo-4-((5-(dimethylphosphoryl)-2-ethylquinolin-6-yl)amino)pyrimidin-2-yl)amino)-5-ethoxy-2-ethylphenyl)piperidin-4-yl)piperazin-1-yl)butyl)-5-fluoro-2-oxobenzo[d]oxazol-3(2H)-yl)piperidine-2,6-dione] | 2.2 | 81.77 | 14.2 | 95.1
6 | CCc1cc(Nc2ncc(Br)c(Nc3ccc4nc(NC5CC5)ccc4c3P(C)(C)=O)n2)c(OC)cc1N1CCC(N2CCN(CCc3ccc4c(c3)oc(=O)n4C3CCC(=O)NC3=O)CC2)CC1 (stereo not shown) [Example 633, 3-(6-(2-(4-(1-(4-((5-bromo-4-((2-(cyclopropylamino)-5-(dimethylphosphoryl)quinolin-6-yl)amino)pyrimidin-2-yl)amino)-2-ethyl-5-methoxyphenyl)piperidin-4-yl)piperazin-1-yl)ethyl)-2-oxobenzo[d]oxazol-3(2H)-yl)piperidine-2,6-dione] | 0.737 | 70.09 | 5.12 | 91.7
7 | CCOc1cc(N2CCC(N3CCN(CCc4c(C)ccc5c4oc(=O)n5C4CCC(=O)NC4=O)CC3)CC2)c(CC)cc1Nc1ncc(Br)c(Nc2ccc3nc(CC)ccc3c2P(C)(C)=O)n1 (stereo not shown) [Example 634, 3-(7-(2-(4-(1-(4-((5-bromo-4-((5-(dimethylphosphoryl)-2-ethylquinolin-6-yl)amino)pyrimidin-2-yl)amino)-5-ethoxy-2-ethylphenyl)piperidin-4-yl)piperazin-1-yl)ethyl)-6-methyl-2-oxobenzo[d]oxazol-3(2H)-yl)piperidine-2,6-dione] | 0.985 | 81.71 | 4.47 | 88
8 | CCOc1cc(N2CCC(N3CCN(CCc4c(F)cc5c(oc(=O)n5C5CCC(=O)NC5=O)c4F)CC3)CC2)c(CC)cc1Nc1ncc(Br)c(Nc2ccc3nc(CC)ccc3c2P(C)(C)=O)n1 (stereo not shown) [Example 635, 3-(6-(2-(4-(1-(4-((5-bromo-4-((5-(dimethylphosphoryl)-2-ethylquinolin-6-yl)amino)pyrimidin-2-yl)amino)-5-ethoxy-2-ethylphenyl)piperidin-4-yl)piperazin-1-yl)ethyl)-5,7-difluoro-2-oxobenzo[d]oxazol-3(2H)-yl)piperidine-2,6-dione] | 1.37 | 77.57 | 11 | 90.7
9 | CCOc1cc(N2CCC(N3CCN(CCCc4cc(C)cc5c4oc(=O)n5C4CCC(=O)NC4=O)CC3)CC2)c(CC)cc1Nc1ncc(Br)c(Nc2ccc3nc(CC)ccc3c2P(C)(C)=O)n1 (stereo not shown) [Example 636, 3-(7-(3-(4-(1-(4-((5-bromo-4-((5-(dimethylphosphoryl)-2-ethylquinolin-6-yl)amino)pyrimidin-2-yl)amino)-5-ethoxy-2-ethylphenyl)piperidin-4-yl)piperazin-1-yl)propyl)-5-methyl-2-oxobenzo[d]oxazol-3(2H)-yl)piperidine-2,6-dione] | 1.52 | 79.04 | 11 | 92.3
10 | CCOc1cc(N2CCC(N3CCN(C(=O)COc4cccc5c4n(C)c(=O)n5C4CCC(=O)NC4=O)CC3)CC2)c(CC)cc1Nc1ncc(Br)c(Nc2ccc3nc(CC)ccc3c2P(C)(C)=O)n1 (stereo not shown) [Example 637, 3-(4-(2-(4-(1-(4-((5-bromo-4-((5-(dimethylphosphoryl)-2-ethylquinolin-6-yl)amino)pyrimidin-2-yl)amino)-5-ethoxy-2-ethylphenyl)piperidin-4-yl)piperazin-1-yl)-2-oxoethoxy)-3-methyl-2-oxo-2,3-dihydro-1H-benzo[d]imidazol-1-yl)piperidine-2,6-dione] | 0.354 | 69.46 | 5.39 | 92.9
11 | CCOc1cc(N2CCC(N3CCN(C(=O)CN4CCN(c5cc(F)c([C@H]6CCC(=O)NC6=O)c(F)c5)CC4)CC3)CC2)c(CC)cc1Nc1ncc(Br)c(Nc2ccc3c(=O)n(CC)ncc3c2P(C)(C)=O)n1 [Example 639, (R)-3-(4-(4-(2-(4-(1-(4-((5-bromo-4-((5-(dimethylphosphoryl)-2-ethyl-1-oxo-1,2-dihydrophthalazin-6-yl)amino)pyrimidin-2-yl)amino)-5-ethoxy-2-ethylphenyl)piperidin-4-yl)piperazin-1-yl)-2-oxoethyl)piperazin-1-yl)-2,6-difluorophenyl)piperidine-2,6-dione] | 0.71 | 86.93 | 4.06 | 94.3
12 | CCOc1cc(N2CCC(N3CCN(CCC4CCN(c5cc(F)c6c(c5)n(CC)c(=O)n6C5CCC(=O)NC5=O)CC4)CC3)CC2)c(CC)cc1Nc1ncc(Br)c(Nc2ccc3c(=O)n(CC)ncc3c2P(C)(C)=O)n1 (stereo not shown) [Example 640, 3-(5-(4-(2-(4-(1-(4-((5-bromo-4-((5-(dimethylphosphoryl)-2-ethyl-1-oxo-1,2-dihydrophthalazin-6-yl)amino)pyrimidin-2-yl)amino)-5-ethoxy-2-ethylphenyl)piperidin-4-yl)piperazin-1-yl)ethyl)piperidin-1-yl)-3-ethyl-7-fluoro-2-oxo-2,3-dihydro-1H-benzo[d]imidazol-1-yl)piperidine-2,6-dione] | 3.09 | 85.38 | 17.9 | 87.2
13 | CCOc1cc(N2CCC(N3CCN(CCc4cccc5c4C(C)(C)C(=O)N5C4CCC(=O)NC4=O)[C@H](CO)C3)CC2)c(CC)cc1Nc1ncc(Br)c(Nc2ccc3c(=O)n(CC)ncc3c2P(C)(C)=O)n1 (stereo partly drawn) [Example 641, 3-(4-(2-((S)-4-(1-(4-((5-bromo-4-((5-(dimethylphosphoryl)-2-ethyl-1-oxo-1,2-dihydrophthalazin-6-yl)amino)pyrimidin-2-yl)amino)-5-ethoxy-2-ethylphenyl)piperidin-4-yl)-2-(hydroxymethyl)piperazin-1-yl)ethyl)-3,3-dimethyl-2-oxoindolin-1-yl)piperidine-2,6-dione] | 0.666 | 76.33 | 7.79 | 96.1
